Common to all, as to type: cell-based, Blumea balsamifera
Assay [1] has as its system B. balsamifera somatic cells. Briefly: Effects of different colchicine concentrations on induction of adventitious tetraploid buds from root segments. The conditions noted are these: for Induction rate %: MS Medium with 1.0 mg/L 6-BA, 0.05 mg/L NAA, root segment about 4.0 cm, 60 days. The source says: (§1) In the examples, effective root segment refers to uncontaminated root segment; induction rate refers to the percentage of the total number of adventitious tetraploid buds formed by induction accounting for the total number of diploid explants, and the calculation formula is: induction rate (%)=(total number of adventitious tetraploid buds/total number of diploid explants)×100%. Chimera rate (%)=(total number of adventitious buds of chimera/total number of adventitious buds)×100%.
MS Medium was used as a basal medium, which was supplemented with 1.0 mg/L 6-BA, 0.05 mg/L NAA, 30 g/L sucrose, 6 g/L agar, and colchicine of different concentrations (50, 70, 90, 120, and 150 mg/L, respectively). Culture media were prepared individually, and segmented root tissues (with a root segment length of about 4.0 cm) were inoculated. Chromosome ploidy identification was conducted on the formed adventitious buds after 60 days. The number of adventitious tetraploid buds was counted, and the doubling induction rate was calculated.

Assay [2] deals with root explants of diploid B. balsamifera. The experiment in a line: Effects of different NAA concentrations on induction of adventitious tetraploid buds from root segments. The settings on record: for Induction rate %: MS Medium with 1.0 mg/L 6-BA, 120 mg/L colchicine, root segment about 4.0 cm, 60 days.
Text: as §1
MS Medium was used as a basal medium, which was supplemented with 1.0 mg/L 6-BA, 120 mg/L colchicine, 30 g/L sucrose, 6 g/L agar, and NAA of different concentrations (0, 0.025, 0.05, 0.075, and 0.1 mg/L, respectively, 0 mg/L as the control group). Culture media were prepared individually, and segmented root tissues (with a root segment length of about 4.0 cm) were inoculated. Chromosome ploidy identification was conducted on adventitious buds after 60 days. The number of adventitious tetraploid buds was counted, and the induction rate was calculated.

In assay [3] the test system is B. balsamifera somatic cells. Briefly: Effects of different 6-BA concentrations on induction of adventitious tetraploid buds from root segments. The conditions noted are these: for Induction rate %: MS Medium with 0.05 mg/L NAA, 120 mg/L colchicine, root segment about 6.0 cm, 60 days.
Text: as §1
MS Medium was used as a basal medium, which was supplemented with 0.05 mg/L NAA, 120 mg/L colchicine, 30 g/L sucrose, 6 g/L agar, and 6-BA of different concentrations (0, 1.0, 1.5, and 2.0 mg/L, respectively, 0 mg/L as the control group). Culture media were prepared individually, segmented root tissues (with a root segment length of about 6.0 cm) were inoculated, and contaminated root explants were excluded after 60 days. The number of tetraploid buds was counted, and the doubling efficiency was calculated.

Each structure is given as a SMILES string.

Consider `COc1cc2c(c(OC)c1OC)-c1ccc(OC)c(=O)cc1[C@@H](NC(C)=O)CC2` [Colchicine, colchicine], for which the Induction rate % in assay [1] (colchicine 50 mg/L) was determined as 0%; in assay [1] (colchicine 70 mg/L), 0%; in assay [1] (colchicine 90 mg/L), 2.08%; in assay [1] (colchicine 120 mg/L) it was 10.42%; in assay [1] (colchicine 150 mg/L) it was 4.17%. For the same compound, the “effect of inducing root explants of diploid B. balsamifera to form adventitious tetraploid buds” value in assay [1] (colchicine 120 mg/L, compared with 50, 70, 90 and 150 mg/L) is “optimal”.

For the compound `O=C(O)Cc1cccc2ccccc12` [NAA, 1-naphthaleneacetic acid], the Induction rate % in assay [2] (NAA 0.025 mg/L) was 2.08%; in assay [2] (NAA 0.05 mg/L) it was 10.42%; in assay [2] (NAA 0.075 mg/L), 4.17%; in assay [2] (NAA 0.1 mg/L), 3.13%. Also, the doubling effect result in assay [2] (NAA 0.05 mg/L, compared with 0, 0.025, 0.075 and 0.1 mg/L) is on record as “optimal”.

On to `c1ccc(CNc2ncnc3nc[nH]c23)cc1` [6-BA, 6-benzylaminopurine], for which, in assay [3] (6-BA 1.0 mg/L, compared with 0, 1.5 and 2.0 mg/L), the “effect of inducing the doubling of the somatic cells of the root explants and dedifferentiating into adventitious tetraploid buds” value is “optimal”. The “Induction rate %” value in assay [3] (6-BA 1.0 mg/L) worked out at 7.75%; in assay [3] (6-BA 1.5 mg/L) it was 5.5%; in assay [3] (6-BA 2.0 mg/L), 4.17%.

Values taken from patent US11800842B2, “Method for obtaining adventitious tetraploid bud of Blumea balsamifera” (Tropical Crops Genetic Resources Institute, Chinese Academy …, priority 2021, dated 2023).
